Laboratory results published in patent US20260069578A1, “TREATMENT OF NEUTROPHILIC DERMATOSES” (UNION THERAPEUTICS A/S, priority 2022, published 2026).
Converted amounts (≈) assume the structure as drawn.

How the values were obtained:
[1] = system: resistant vegetative PG; details: one case, concomitantly with oral prednisone; cited from earlier work
[2] = biological target: purified human recombinant PDE4D protein (Homo sapiens, UniProt Q08499); test: PDE4D scintillation proximity assay (SPA); type: biochemical
Experimental: PDE4 enzymatic activity was measured in a scintillation proximity assay using purified human recombinant PDE4D protein.

[3] = biological target: PDE4A10 (Homo sapiens, UniProt P27815); type: biochemical
[4] = biological target: PDE4A1 (Homo sapiens, UniProt P27815)
[5] = system: conscious, unrestrained ferret; test: Emesis study in ferrets; details: oral, 1, 3, 10 and 30 mg/kg
[6] = biological target: PDE4A4 (Homo sapiens, UniProt P27815); type: biochemical
[7] = biological target: PDE4D1 (Homo sapiens, UniProt Q08499); type: biochemical
Experimental: (§1) Enzyme Preparations: Partially purified human recombinant phosphodiesterases (PDEs) were obtained by cloning cDNA and expressing in S. frugiperda insect cells using a baculovirus expression system. Cells are harvested from culture by centrifuging at 400×g for 5 minutes. Cell pellet is resuspended in 20 ml of RIPA Buffer (150 mM NaCl, 10 mM Tris, 0.1% NP-40, pH8.3), 4 ml/200 ml of culture, plus protease inhibitors (100 μl/10 ml) and incubated on ice for 10-20 minutes then spun at 3500×g for 10 minutes at 4° C. Supernatant is kept and the pellet thrown away.
(§2) Tritium-labelled cyclic AMP is hydrolysed to 5′-AMP o by PDE. The 5′-AMP is then further hydrolysed to adenosine by nucleotidase in snake venom. An anion-exchange resin binds all charged nucleotides and leaves [^3H]adenosine as the only labelled compound to be counted by liquid scintillation.
(§3) 50 μl of diluted PDE enzyme was incubated with 50 μl of [^3H]-cAMP (specific activity 25 Ci/mmol) and 11 μl of 50% DMSO (or compound dilution) for 20 minutes at 30° C. The enzyme was diluted in 20 mM Tris HCl pH7.4 (×2.2 final concentration) and [3H]-cAMP was diluted in 10 mM MgCl2, 40 mM Tris HCl pH 7.4 (×2.2 final concentration). Reactions were carried out in Greiner 96 deep well 1 ml master-block. The plates were centrifuged for 9 seconds before the 20 minutes incubation. […] After incubation 200 μl Dowex resin (1×8, 200-400 mesh) was added and the plate shaken for 20 minutes then centrifuged for 3 minutes at 1000×g. 5 μl of supernatant was removed and added to 200 μl of MicroScint-20 in white plates (Greiner 96 well Optiplate) and shaken for 30 minutes before reading on Perkin Elmer TopCount Scintillation Counter. […] values were calculated using GraphPad Prism software (version 8).

[8] = biological target: PDE4B1 (Homo sapiens, UniProt Q07343); type: biochemical
Experimental: as §1, §2, §3

[9] = biological target: PDE4D3 (Homo sapiens, UniProt Q08499); type: biochemical; details: value generated by extrapolation of data
Experimental: as §1, §2, §3

[10] = biological target: PDE4D2 (Homo sapiens, UniProt Q08499); type: biochemical; details: value generated by extrapolation of data
Experimental: as §1, §2, §3

[11] = biological target: PDE4D7 (Homo sapiens, UniProt Q08499); type: biochemical
Experimental: as §1, §2, §3

[12] = biological target: PDE4D5 (Homo sapiens, UniProt Q08499); type: biochemical
Experimental: as §1, §2, §3

[13] = biological target: PDE4B3 (Homo sapiens, UniProt Q07343); type: biochemical
Experimental: as §1, §2, §3

[14] = biological target: PDE4B2 (Homo sapiens, UniProt Q07343); type: biochemical
Experimental: as §1, §2, §3

[15] = system: LPS-induced TNF-α; test: LPS-induced TNF-α in ferrets after single oral administration; details: LPS 3 mg/kg ip
[16] = system: pyoderma gangrenosum with concomitant HS / PASH syndrome; test: Clinical study in two patients; type: in vivo, human
Experimental: The efficacy of the peroral anti-inflammatory PDE4-inhibitor Orismilast was investigated in two patients, one with pyoderma gangrenosum and concomitant HS, the other with PASH syndrome. Patients received a titrated dose of Orismilast of up to 40 mg twice daily for 16 weeks.

[17] = system: TNF-α secretion from human whole blood; test: Whole blood TNF-α secretion assay (LPS or SEB stimulated); type: cell-based; details: 24 h, SEB 1 μg/mL, donor 2
[18] = Case 1, PASH syndrome, 20 mg twice daily
[19] = Case 2, PG and HS, 30 plus 40 mg daily

purified human recombinant PDE4D protein, sequence (Q08499 whole entry): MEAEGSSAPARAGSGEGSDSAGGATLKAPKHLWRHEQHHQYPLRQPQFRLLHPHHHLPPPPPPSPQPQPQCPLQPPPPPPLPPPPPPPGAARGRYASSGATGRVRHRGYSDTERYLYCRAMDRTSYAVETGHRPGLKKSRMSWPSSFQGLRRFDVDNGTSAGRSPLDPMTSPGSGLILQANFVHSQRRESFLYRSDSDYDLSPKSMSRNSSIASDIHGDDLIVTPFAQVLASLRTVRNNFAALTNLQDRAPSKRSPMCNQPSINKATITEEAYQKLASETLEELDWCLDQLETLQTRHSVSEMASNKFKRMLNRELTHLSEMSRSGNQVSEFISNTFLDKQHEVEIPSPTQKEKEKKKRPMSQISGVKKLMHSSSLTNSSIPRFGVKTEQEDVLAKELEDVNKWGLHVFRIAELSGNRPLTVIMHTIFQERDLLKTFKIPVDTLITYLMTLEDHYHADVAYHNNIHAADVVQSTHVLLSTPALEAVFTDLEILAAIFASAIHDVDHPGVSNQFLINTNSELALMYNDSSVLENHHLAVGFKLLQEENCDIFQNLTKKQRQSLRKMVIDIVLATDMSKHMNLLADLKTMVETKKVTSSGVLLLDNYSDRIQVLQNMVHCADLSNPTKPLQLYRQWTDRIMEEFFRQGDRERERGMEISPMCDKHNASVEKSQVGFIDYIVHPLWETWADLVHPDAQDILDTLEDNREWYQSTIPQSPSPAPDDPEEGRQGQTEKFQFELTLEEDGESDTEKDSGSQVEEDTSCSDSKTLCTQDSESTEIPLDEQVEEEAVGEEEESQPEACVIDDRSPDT
PDE4A4, sequence (P27815 whole entry): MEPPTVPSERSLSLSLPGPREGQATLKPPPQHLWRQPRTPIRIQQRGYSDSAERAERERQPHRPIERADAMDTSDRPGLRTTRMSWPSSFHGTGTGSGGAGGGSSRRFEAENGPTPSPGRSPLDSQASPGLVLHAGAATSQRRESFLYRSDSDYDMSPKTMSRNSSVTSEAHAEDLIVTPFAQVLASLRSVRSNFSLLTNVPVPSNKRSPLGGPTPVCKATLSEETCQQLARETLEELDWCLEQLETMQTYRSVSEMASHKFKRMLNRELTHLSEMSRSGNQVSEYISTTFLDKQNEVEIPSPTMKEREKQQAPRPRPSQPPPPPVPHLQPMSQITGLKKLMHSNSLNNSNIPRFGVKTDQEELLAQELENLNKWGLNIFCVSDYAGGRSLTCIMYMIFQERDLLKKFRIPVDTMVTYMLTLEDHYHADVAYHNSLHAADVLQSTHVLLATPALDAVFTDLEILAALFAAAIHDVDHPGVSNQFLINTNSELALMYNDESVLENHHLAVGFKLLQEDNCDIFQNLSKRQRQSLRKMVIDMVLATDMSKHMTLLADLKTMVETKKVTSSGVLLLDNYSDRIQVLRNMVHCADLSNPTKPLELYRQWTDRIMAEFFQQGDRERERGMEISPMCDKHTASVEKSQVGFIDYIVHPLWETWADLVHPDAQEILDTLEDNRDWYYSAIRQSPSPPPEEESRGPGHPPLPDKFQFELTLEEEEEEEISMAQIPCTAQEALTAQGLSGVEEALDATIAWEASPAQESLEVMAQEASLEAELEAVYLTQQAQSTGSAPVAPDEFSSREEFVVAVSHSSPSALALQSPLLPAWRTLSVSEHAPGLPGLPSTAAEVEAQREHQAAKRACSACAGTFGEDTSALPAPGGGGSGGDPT
PDE4B3, sequence (Q07343 1-721 isoform Q07343-3): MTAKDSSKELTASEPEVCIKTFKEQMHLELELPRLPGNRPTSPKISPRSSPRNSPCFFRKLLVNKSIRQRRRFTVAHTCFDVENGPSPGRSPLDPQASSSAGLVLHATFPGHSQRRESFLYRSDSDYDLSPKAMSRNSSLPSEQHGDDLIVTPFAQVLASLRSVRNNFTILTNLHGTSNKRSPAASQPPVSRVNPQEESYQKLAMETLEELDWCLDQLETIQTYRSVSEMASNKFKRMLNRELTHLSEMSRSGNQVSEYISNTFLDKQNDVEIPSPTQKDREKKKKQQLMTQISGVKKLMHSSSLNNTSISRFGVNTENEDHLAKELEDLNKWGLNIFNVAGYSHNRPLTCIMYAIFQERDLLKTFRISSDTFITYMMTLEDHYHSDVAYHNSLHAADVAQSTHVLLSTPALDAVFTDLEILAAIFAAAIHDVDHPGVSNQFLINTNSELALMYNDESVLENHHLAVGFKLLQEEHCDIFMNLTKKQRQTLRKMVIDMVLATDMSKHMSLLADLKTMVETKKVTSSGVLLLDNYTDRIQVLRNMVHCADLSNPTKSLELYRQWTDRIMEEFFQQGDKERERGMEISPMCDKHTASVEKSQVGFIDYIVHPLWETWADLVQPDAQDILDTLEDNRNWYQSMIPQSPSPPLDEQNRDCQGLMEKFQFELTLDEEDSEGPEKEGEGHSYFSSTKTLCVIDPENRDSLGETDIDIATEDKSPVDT
PDE4D2, sequence (Q08499 303-809): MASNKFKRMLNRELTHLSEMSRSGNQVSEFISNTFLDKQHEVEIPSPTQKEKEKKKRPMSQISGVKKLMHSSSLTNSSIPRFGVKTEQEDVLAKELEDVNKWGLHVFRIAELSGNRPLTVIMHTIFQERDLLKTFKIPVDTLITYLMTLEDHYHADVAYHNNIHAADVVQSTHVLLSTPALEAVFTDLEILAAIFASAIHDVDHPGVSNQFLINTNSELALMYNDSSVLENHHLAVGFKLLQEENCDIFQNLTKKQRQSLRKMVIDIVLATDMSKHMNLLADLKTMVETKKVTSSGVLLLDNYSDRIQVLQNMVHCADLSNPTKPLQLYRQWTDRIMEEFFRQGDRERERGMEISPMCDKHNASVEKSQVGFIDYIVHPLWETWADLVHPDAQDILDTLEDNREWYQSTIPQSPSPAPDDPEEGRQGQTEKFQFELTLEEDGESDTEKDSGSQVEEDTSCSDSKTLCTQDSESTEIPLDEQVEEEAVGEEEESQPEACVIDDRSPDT
PDE4D7, sequence (Q08499 1-748 isoform Q08499-11): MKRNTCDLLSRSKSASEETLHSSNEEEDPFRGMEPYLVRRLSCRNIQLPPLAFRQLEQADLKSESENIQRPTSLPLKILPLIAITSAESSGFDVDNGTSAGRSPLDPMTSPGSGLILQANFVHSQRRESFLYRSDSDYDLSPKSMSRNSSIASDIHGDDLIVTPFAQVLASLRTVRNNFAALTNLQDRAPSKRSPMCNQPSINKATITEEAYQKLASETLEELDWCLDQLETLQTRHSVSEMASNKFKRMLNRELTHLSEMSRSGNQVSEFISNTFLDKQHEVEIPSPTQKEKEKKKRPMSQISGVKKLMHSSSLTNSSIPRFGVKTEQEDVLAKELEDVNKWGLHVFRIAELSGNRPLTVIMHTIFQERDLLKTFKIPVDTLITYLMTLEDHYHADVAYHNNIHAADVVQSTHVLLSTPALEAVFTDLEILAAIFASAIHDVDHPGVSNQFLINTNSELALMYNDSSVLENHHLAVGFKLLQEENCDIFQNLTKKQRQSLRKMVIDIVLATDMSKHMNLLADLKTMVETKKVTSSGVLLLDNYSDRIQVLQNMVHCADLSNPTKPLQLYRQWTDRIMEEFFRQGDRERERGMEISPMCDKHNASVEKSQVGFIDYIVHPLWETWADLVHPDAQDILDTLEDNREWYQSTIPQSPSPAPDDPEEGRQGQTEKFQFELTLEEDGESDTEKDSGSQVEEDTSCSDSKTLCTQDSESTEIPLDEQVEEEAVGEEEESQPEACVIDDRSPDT
PDE4A10, sequence (P27815 1-825 isoform P27815-6): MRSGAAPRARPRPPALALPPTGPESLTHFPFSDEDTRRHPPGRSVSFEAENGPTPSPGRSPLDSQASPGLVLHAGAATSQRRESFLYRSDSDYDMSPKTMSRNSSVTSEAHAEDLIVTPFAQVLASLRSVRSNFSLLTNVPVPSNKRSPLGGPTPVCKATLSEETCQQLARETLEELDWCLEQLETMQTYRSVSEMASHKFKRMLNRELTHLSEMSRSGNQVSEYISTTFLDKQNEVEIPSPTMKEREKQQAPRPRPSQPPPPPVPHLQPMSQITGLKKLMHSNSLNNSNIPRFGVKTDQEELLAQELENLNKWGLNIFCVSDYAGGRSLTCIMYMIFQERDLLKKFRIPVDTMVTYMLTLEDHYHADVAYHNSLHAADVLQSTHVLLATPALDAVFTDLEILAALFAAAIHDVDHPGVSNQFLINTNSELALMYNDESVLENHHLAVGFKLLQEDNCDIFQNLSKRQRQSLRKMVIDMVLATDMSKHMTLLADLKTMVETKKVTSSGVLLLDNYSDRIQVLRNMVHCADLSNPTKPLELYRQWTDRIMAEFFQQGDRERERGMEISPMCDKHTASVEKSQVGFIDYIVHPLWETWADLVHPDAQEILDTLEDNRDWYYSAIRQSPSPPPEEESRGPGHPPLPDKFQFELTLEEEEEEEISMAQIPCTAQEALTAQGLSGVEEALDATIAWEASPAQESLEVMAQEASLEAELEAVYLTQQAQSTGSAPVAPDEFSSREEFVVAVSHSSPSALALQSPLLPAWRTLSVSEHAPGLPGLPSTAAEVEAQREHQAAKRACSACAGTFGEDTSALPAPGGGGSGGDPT
PDE4B2, sequence (Q07343 1-564 isoform Q07343-2): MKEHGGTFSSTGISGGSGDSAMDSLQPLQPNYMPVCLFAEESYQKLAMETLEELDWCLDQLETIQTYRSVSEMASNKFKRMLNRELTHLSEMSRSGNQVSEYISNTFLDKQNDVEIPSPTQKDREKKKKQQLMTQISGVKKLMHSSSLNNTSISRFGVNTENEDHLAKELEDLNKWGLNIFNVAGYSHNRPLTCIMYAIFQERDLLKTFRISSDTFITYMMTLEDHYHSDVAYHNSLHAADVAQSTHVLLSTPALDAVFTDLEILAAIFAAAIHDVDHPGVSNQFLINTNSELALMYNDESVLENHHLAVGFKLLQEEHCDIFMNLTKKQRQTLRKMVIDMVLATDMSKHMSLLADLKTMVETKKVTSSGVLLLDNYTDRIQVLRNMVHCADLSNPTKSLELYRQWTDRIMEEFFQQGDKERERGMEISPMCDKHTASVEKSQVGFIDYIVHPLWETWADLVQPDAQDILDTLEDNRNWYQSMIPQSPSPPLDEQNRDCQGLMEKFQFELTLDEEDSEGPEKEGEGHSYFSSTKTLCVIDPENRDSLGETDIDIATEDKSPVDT

SMILES: CCOc1cc([C@@H](CS(C)(=O)=O)N2C(=O)c3cccc(NC(C)=O)c3C2=O)ccc1OC [Apremilast]
- Lesion healing [1]: Complete healing of one lesion and partial healing of another

SMILES: O=C(Cc1c(Cl)c[n+]([O-])cc1Cl)c1ccc(OC(F)F)c2c1OC1(CCS(=O)(=O)CC1)O2 [Compound (I), 2-(3,5-Dichloro-1-oxido-pyridine-4-yl)-1-(7-difluoro-methoxy-2′,3′,5′,6′-tetrahydro-spiro[1,3-benzodioxole-2, 4′-(4H)-thiopyran-1′,1′-dioxide]-4-yl)ethanone]
- EC50 values, PDE4D SPA [2]: 7.5 ng/mL (≈ 0.0147 µM)
- IC50 [3]: 52.3 nM
- IC50 [4]: 16.4 nM
- Health status or body weight gain [5]: not to influence
- IC50 [6]: 11.3 nM
- IC50 [7]: 8.67 nM
- IC50 [8]: 15.7 nM
- IC50 [9]: 1.75 nM
- IC50 [10]: 2.03 nM
- IC50 [11]: 2.94 nM
- IC50 [12]: 2.18 nM
- IC50 [13]: 2.94 nM
- IC50 [14]: 5.6 nM
- Increase of TNF-α levels observed at 1 hour after LPS ([15]; oral, 1, 3 and 10 mg/kg): attenuated
- HS lesions [16, 18]: gradually improved
- pyoderma wounds [16, 18]: slowly recovered
- HS lesions [16, 19]: remained calm
- pyoderma wounds [16, 19]: completely healed

SMILES: O=C(Nc1c(Cl)cncc1Cl)c1ccc(OC(F)F)c(OCC2CC2)c1 [Roflumilast, reference compound]
- Health status or body weight gain [5]: did not influence
- Increase of TNF-α levels observed at 1 hour after LPS ([15]; oral, 1 and 3 mg/kg): attenuated

SMILES: C[C@@H]1CCN(C(=O)CC#N)C[C@@H]1N(C)c1ncnc2[nH]ccc12 [Tofacitinib]
- Emax [17]: 100%
